The results in this text go back to patent US10130676B2, “Therapeutic peptides for cerebrovascular diseases” (Prime Bio-Drug Development Limited, priority 2015, dated 2018).

Data set [1] has as its system PC12 cells. As to the kind of experiment: PC12 cell survival upon exposure to L-glutamic acid (MTT). In kind it is cell-based, rat. The settings on record: 10 ug/ml for each peptide; 1 mM L-glutamic acid. The procedure: PC12 cells were obtained from the Chinese Academy of Medical Sciences, Beijing, China. To examine cell survival upon exposure to L-glutamic acid, PC12 cells were grown to confluence in 96 well plate in serum-free RPMI-1640. […] After 15-min incubation, medium was changed to serum-free RPMI-1640. After 24 h incubation, 100 μL MTT (final concentration 0.5 mg/ml) was added for additional 4 h incubation, and the cell survival was subsequently assessed by absorbance at 540 nm under a Fluostar microplate reader (BMG Germany).
(§1) Differences were considered significant at P<0.05.

Data set [2] is described as follows: Stability test in solutions of different pH value (HPLC, MALDI-TOF). In kind it is physicochemical. The settings on record: pH 2.0 to 8.5, 3 days, HPLC UV 220 nm. As to the method:
(§2) Peptide-5 was dissolved in series of solution with different pH value and stood for 3 days. Adequate amount of each resulting solution was analyzed by HPLC (Agilent 1100 series) using a Nucleodur Pyramid C18 column (250 mm×4.6 mm, 5 μm) and gradient elution (0 min: 0.1% TFA in H2O; 10 min: 0.1% TFA in MeOH; 15 min: 0.1% TFA in MeOH) with 0.2 mL/min flow. The signals were monitored by UV detector at 220 nm wavelength. The sample collected in the stability test was also analyzed by MALDI-TOF Mass (Bruker Daltonics, Autoflex III) with 2,5-dihydroxybenzoic acid (DHB) as matrix. Furthermore, the portion respond to the signal at 7.8 min were collected and subject to MALDI-MS analysis. Peptide-5 was also prepared 50 μM in PBS and recorded from circular dichroism (Jasco, J-810).

A short description of data set [3]: In vivo distribution of Cy5.5-conjugated peptides after i.v. injection (IVIS optical imaging). More on the design: species or system C57B/L6 mice. The settings on record: for fluorescent intensity detected in the brain: 15 and 30 minutes after injection (FIG. 12); for fluorescent intensity detected in the spinal cord: 30 and 60 minutes after injection (FIG. 13). From the text: The C57B/L6 mice (6˜8 week-old, female) were purchased from National Laboratory Animal Center, Taiwan. For optical imaging, animals were anesthetized by 2% isoflurane gas mixed with oxygen and intravenous injection (i.v.) of Cy5.5-conjugated peptide 1 or Cy5.5-conjugated peptide 5 (35 nmole/per mouse). After administration the mice were placed prone or supine in a dark box and a photographic image was first acquired at low light (exposure time: 5 seconds). At indicated time points after administration of probes, fluorescent signals were obtained using a CCD camera thermoelectrically cooled to −70° C. (Xenogen—IVIS® Spectrum Imaging System, Xenogen Technology). The photon integration period was 1-2 sec.

The test system of data set [4] is PC12 cells. As to the kind of experiment: PC12 cell survival under hypoglycemic, hypoxic or hypoglycemic-hypoxic conditions (MTT). The settings on record: for protective effect on PC12 from cell death under hypoglycemic and hypoxic conditions: 10 ug/ml for each peptide, 24 h; for protective effect against cell death induced by hypoxia / protective effects against cytotoxicity induced by hypoxia or by (hypoglycemia+hypoglycemia): peptide used individually; for protective effects against cytotoxicity induced by hypoxia or by (hypoglycemia+hypoglycemia): conditions as printed.
Method: PC12 cells were propagated and cultured as described above. For hypoglycemic condition, 125 μM Cobaltous Chloride (CoCl2, Sigma, USA) was added into the culture media when PC12 cells were in monolayer for further 24 h incubation as described. For induction of hypoglycemia, culture media was changed to glucose-free Eagle's medium when PC12 grew to monolayer for additional 24 h incubation. For hypoglycemic and hypoxic conditions, PC12 cells were cultured in glucose-free Eagle's media with addition of 125 μM CoCl2. After 24 h, cells were harvested and subject to MTT assay.
Data were expressed as mean±standard error (SE) and multiple comparisons were evaluated by the analysis of variance and Neuman-Keuls test. Differences were considered significant at P<0.05. Neurological deficit data were evaluated by the nonparametric Mann-Whitney test.

Data set [5] in a line: Circular dichroism (CD) of the peptide in PBS. In kind it is physicochemical. The note with it: 50 μM in PBS. The procedure: as §2
The test system of data set [6] is PC12 cells. As to the kind of experiment: PC12 cell survival upon exposure to H2O2 (MTT). The data set is classed as cell-based, rat. The note with it: 10 ug/ml for each peptide; 200 μM H2O2, 24 h. The procedure: To examine cell survival upon exposure to H2O2, PC12 cells were grown to confluence in 96 well plate and the medium was changed to serum-free medium containing 200 μM H2O2 (final volume 100 μl) for 24 h. […] After 24 h incubation, 100 μL MTT (final concentration 0.5 mg/ml) was added for additional 4 h incubation, and the cell survival was subsequently assessed by absorbance at 540 nm under a Fluostar microplate reader (BMG, Germany).
as §1

Ends that are not written are not given here.

DEAQETAVSSHEQD-OH [Peptide 5]: the “protective effect on L-glutamic-acid-treated PC12 cells” value in the data set on PC12 cells [1] is “a degree of protective effect”. For the same substance, the “stability in solution with various pH value” in data set [2] is “stable, even in a very acidic environment”. Further, in data set [3], the “fluorescent intensity detected in the brain” value is “high fluorescent intensity” and the “fluorescent intensity detected in the spinal cord” value is “high fluorescent intensity”. In the data set with PC12 cells [4], the “protective effect on PC12 from cell death under hypoglycemic and hypoxic conditions” value is on record as “had the protective effect as well”; the “protective effect against cell death induced by hypoxia” value is listed as “some protective effect”; the “protective effects against cytotoxicity induced by hypoxia or by (hypoglycemia+hypoglycemia)” value is “no protective effects”. Moreover, the “stability by CD (circular dichroism)” value in data set [5] is “extremely stable”. Further, the “protective effect on H2O2-treated neural cells (cell survival)” value in the data set on PC12 cells [6] is listed as “a degree of protective effect”.
As for DEAQETAVSSH-OH [Peptide 1], in the data set with PC12 cells [1], the “protective effect on L-glutamic-acid-treated PC12 cells” value is “a degree of protective effect”. For the same substance, in data set [3], the “fluorescent intensity detected in the brain” value is “high fluorescent intensity” and the “fluorescent intensity detected in the spinal cord” value is “high fluorescent intensity”. Moreover, in the data set with PC12 cells [4], the “protective effect on PC12 from cell death under hypoglycemic and hypoxic conditions” value is “had the protective effect as well”; the “protective effect against cell death induced by hypoxia” value is recorded as “some protective effect”; the “protective effects against cytotoxicity induced by hypoxia or by (hypoglycemia+hypoglycemia)” value is recorded as “no protective effects”. Besides, the “protective effect on H2O2-treated neural cells (cell survival)” value in the data set with PC12 cells [6] was “a degree of protective effect”.
